# Reference: patent US20100120662A1, “Glucose uptake modulator and method for treating diabetes or diabetic complications” (POSTECH Foundation, priority 2005, published 2010)
# Ends that are not written are not given here.
# Legend:
# ICR mice = assay: Blood glucose in normal ICR mice after intravenous UCN; assay type: in vivo, mouse; details: i.v.
# Procedure: (§1) The inserted immunoblot data is about IR phosphorylation by UCN in skeletal muscle. Mice were injected (intravenously) with either vehicle (0.1% BSA in saline) or UCN (0.1-100 μM). Values are the mean±S.D. for four control and four UCN-treated mice. […] The inserted immunoblot data was about IR phosphorylation by treatment of UCN in skeletal muscle of STZ mouse. Mice were injected (intravenously) with vehicle (0.1% BSA in saline), UCN (0.1 μM) and/or insulin (1 nM). And plasma levels of glucose were measured during 45 min. Values are the mean±S.D. for six mice each group. *, P<0.05.
# For prepare the normal test animal, male Institute of Cancer Research (ICR) mice weighing 20-25 g, aged 8 weeks, were obtained from the Hyochang Science were housed four to cage in a temperature- and light-controlled room (20-22° C.; 12-hrs light, 12-hrs dark cycle; lights on at 07:00 hr) and were provided with regular diet chow and water ad libitum. The laboratory procedures used conformed to the guidelines of the Korea Government Guide for the Care of Use of Laboratory Animals. In the in vivo study, after fasting overnight, mice were injected to intravenous vein with 0.1% BSA saline or UCN, then plasma glucose was measured on a time by glucose analyzer (model AGM-2100, allmedicus Inc., anyang, Korea)
# C2C12 myotubules = assay: Glucose uptake in C2C12 myotubules (UCN); assay type: cell-based; details: in the presence of UCN
# Procedure: (§2) UCN enhanced insulin-induced glucose uptake and phosphorylation of IR, IRS and Akt. Myotubules were incubated with 2 nM UCN and/or variant insulin dose (0-50 nm) for 1 min (Inserted immunoblot data). Phosphorylation of IRS and Akt was assessed by western blot analysis with anti-pIRS and anti-pAkt antibodies. Glucose uptake was determined as below.
# (§3) C2C12 cells were maintained in DMEM, supplemented with 10% (v/v) FBS. The cells were grown at 37° C. in a humidified atmosphere of 5% CO2 and 95% air. For the differentiation of C2C12 cells, growing media was changed to DMEM, supplemented with 2% (v/v) ES and cultured for 7 days.
# After differentiation, cells were washed and incubated during 3 hrs with 2 ml Krebs-Ringer phosphate (KRP) containing 130 mM NaCl, 5 mM KCl, 1.3 mM CaCl2.2H2O, 1.3 mM MgSO4.7H2O, and 10 mM Na2HPO4.7H2O, pH 7.4. To determine the effect of UCN on glucose uptake, 10 min incubation in 1 ml of KRP at indicated conditions was carried out. The reaction was performed by adding a mixture of [^14C] 2-DG (1 μCi/ml) and non-radioactive 2-DG (final concentration of 20 mM) for 10 min. […] Cell-associated radioactivity was determined by lysing the cells in 1 N NaOH and followed by scintillation counting. Non-specific uptake was measured by incubating the cells with cytochalasin B (20 μM/ml). […]
# insulin receptor (IR) [1] = assay: IR autophosphorylation in hIRcB cells; assay type: cell-based, human
# Procedure: FIG. 12A shown a comparison of insulin sensitizing effect among CRF family which was obtained by incubating cells with 1 μM CRF family and/or 2 nM insulin or with medium alone for 1 min. […] FIG. 12B was obtained by incubating cells with 2 nM insulin and variant dose of UCN (from 2 nM to 1 μM) for 1 min. FIG. 12C was obtained by incubating cells 100 nM UCN and variant dose of insulin for 1 min. Phosphorlyation of IR was assessed by western blotting with anti-pTyr antibodies. FIG. 13D was obtained by incubating cells with 100 nM UCN and/or 10 nM insulin for 0, 2, 10, 30, and 60 min, and then assessing the phosphorlyation of IR by western blotting with anti-pIR antibodies. Quantization of IR autophosphorylation was measured with image gauge software (Fuji film). The values are the mean±S.E. for three experiments. *, P<0.05
# hIRcB cells were maintained in DMEM, supplemented with 10% (v/v) FBS. The cells were grown at 37° C. in a humidified atmosphere of 5% CO2 and 95% air.
# After treatment of ligands as indicated time and dose, the cells were washed with cold PBS and lysed with lysis buffer (50 mM HEPES pH 7.5, 150 mM NaCl, 1%
# Triton X-100, 1 mM EDTA, 10% glycerol) containing protease inhibitors (0.5 mM PMSF, 1 μg/ml leupeptin and 5 μg/ml aprotinin) and phosphatase inhibitors (30 mM NaF, 1 mM Na3VO4 and 30 mM Na4O7P2). The cell lysates were incubated for 1 hr at 4° C. After centrifugation (14,000×g for 15 min), equal amounts of soluble extract were incubated, for 4 hrs, with 5 μg of anti-IR antibody and 30 μl of resin volume of immobilized protein A. For gel electrophoresis, the precipitates were dissolved in Laemmli sample buffer. The sample was separated by SDS-PAGE and transferred to a nitrocellulose membrane (Schleicher and Schuell, BA85). Blocking was performed with TTBS buffer (10 mM Tris/HCl, pH 7.5, 150 mM NaCl, and 0.05% Tween 20) containing 5% skimmed milk powder. The membrane was probed with primary for 3 hrs at room temperature. Subsequently the immunoblot was washed and incubated with horseradish peroxidase-linked secondary antibody for 1 hr at room temperature, rinsed four times in TTBS buffer, and developed with horseradish peroxidase-dependent chemiluminescence reagents (Amersham International, United Kingdom).
# STZ-mouse = assay: Blood glucose in STZ mice after intravenous UCN and/or insulin; assay type: in vivo
# Procedure: as §1
# For preparing STZ-mouse, male Institute of Cancer Research (ICR) mice weighing 20-25 g, aged 8 weeks, were obtained from the Hyochang Science. STZ-induced diabetic mice were prepared by administering an intraperineal injection of STZ (Sigma Chemical, St. Louis, Mo.) (75 mg/kg) to male ICR mice after the animals were fasted for 1 day. And the next day had one more injection of STZ. Mice with plasma glucose concentrations ≧280 mg/dl were considered to have type 1 diabetes. All tests were carried out 3 days after the injection of STZ.
# insulin receptor (IR) [2] = assay: IR phosphorylation in mouse skeletal muscle; assay type: in vivo; details: soleus muscle, 15 min after i.v. injection
# Procedure: After fasting overnight, mice were injected iv with agonist. After 15 min, mice were killed by soleus muscles were rapidly excised and were immediately frozen in liquid nitrogen. Lysates were prepared by homogenizing the tissues in lysis buffer (50 mM HEPES pH 7.5, 150 mM NaCl, 1% Triton X-100, 1 mM EDTA, 10% glycerol) containing protease inhibitors (0.5 mM PMSF, 1 μg/ml leupeptin and 5 μg/ml aprotinin) and phosphatase inhibitors (30 mM NaF, 1 mM Na3VO4 and 30 mM Na4O7P2). Debris was removed by centrifugation at 14,000 rpm for 10 min at 4° C. Immunoprecipitation and Western blots were performed as previously described.
# IR, IRS and Akt = assay: Phosphorylation of IR, IRS and Akt in C2C12 myotubules; assay type: cell-based
# Procedure: as §2, §3
# Immunoprecipitation and immunoblot was performed according to the method of EXAMPLE 8.
substance,measurement,setting,value
"urocortin (DNPSLSIDLTFHLLRTLLELARTQSQRERAEQNRIIFDSV; ends and bridges not checked; UniProt P55089 83-122, looked up) [UCN, a 40 amino acid peptide as a member of the corticotrophin release factor (CRF) family]","blood glucose level, UCN alone",ICR mice; 0.1 μM UCN,down-regulated the blood glucose level
same,"blood glucose level, UCN alone",ICR mice; from 100 pM up,enhanced blood glucose level
same,insulin-stimulated glucose uptake,C2C12 myotubules,significantly increased
same,insulin-mediated IR phosphorylation,"insulin receptor (IR) [1]; 1 μM CRF family peptide with 2 nM insulin, 1 min, hIRcB cells",potentate insulin-mediated IR phosphorylation
same,dose and time dependence of insulin sensitizing effect,"insulin receptor (IR) [1]; UCN 2 nM to 1 μM with 2 nM insulin, 100 nM UCN with 10 nM insulin 0-60 min","increased in dose (12B,12C) and time (12D) dependent manner"
same,potency in potentiating insulin-mediated IR phosphorylation compared with CRF,insulin receptor (IR) [1]; hIRcB cells,more potent
same,IR phosphorylation by peptide alone,"insulin receptor (IR) [1]; without insulin, hIRcB cells",no effect on IR phosphorylation
same,"change of blood glucose level, UCN alone","STZ-mouse; UCN (0.1 μM) i.v., 45 min",no effect on the change of blood glucose level
same,"blood glucose level, UCN co-injected with insulin",STZ-mouse; UCN co-injected with inactive concentration of insulin (1 nM),significantly decreased
same,insulin-induced IR phosphorylation in mouse skeletal muscle,insulin receptor (IR) [2],significantly sensitized insulin-induced IR phosphorylation
same,"insulin-induced phosphorylation of IR, IRS and Akt","IR, IRS and Akt; 2 nM UCN and/or insulin 0-50 nm, 1 min",enhanced
same,insulin-induced phosphorylation of IR,"IR, IRS and Akt; in the presence of UCN, C2C12 myotubules",enhanced
